Assay results taken from patent EP2308883A1, “New derivatives of thieno[2,3-b]pyridine and 5,6,7,8 tetrahydrothieno[2,3 b]quinoline in particular useful in the treatment of malaria” (priority 2009, dated 2011).
Read-outs that look alike come from different tables or passages of the source.

Columns and labels:
PfGSK-3 = molecular target: T1, PfGSK-3 (Plasmodium falciparum, UniProt O77344); test: Kinase assay with recombinant (His)6-tagged PfGSK3, GS-1 peptide and [γ-33P] ATP; assay type: biochemical; conditions: for anti-PfGSK-3 IC50 values: result in words
T1 construct: His6; made in house; host or cells: Escherichia coli TOP 10
T1 sequence (O77344 1-440): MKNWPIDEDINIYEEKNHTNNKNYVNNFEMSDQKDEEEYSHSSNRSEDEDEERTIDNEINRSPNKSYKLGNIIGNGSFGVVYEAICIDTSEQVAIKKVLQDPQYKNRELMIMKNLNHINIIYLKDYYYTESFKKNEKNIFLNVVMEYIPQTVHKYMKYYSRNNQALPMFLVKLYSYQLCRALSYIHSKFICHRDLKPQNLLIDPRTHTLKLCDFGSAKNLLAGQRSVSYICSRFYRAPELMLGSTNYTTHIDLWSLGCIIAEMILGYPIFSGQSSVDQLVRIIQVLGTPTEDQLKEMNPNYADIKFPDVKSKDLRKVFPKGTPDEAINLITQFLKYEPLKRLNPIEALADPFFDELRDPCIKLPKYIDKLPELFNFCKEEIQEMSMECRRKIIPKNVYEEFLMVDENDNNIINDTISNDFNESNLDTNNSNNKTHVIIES
Method: Escherichia coli strain (TOP 10) containing a plasmid encoding PfGSK3 with six histidines (pBAD-Thio-TOPO, Invitrogen) were cultured into 500 ml of LB medium containing 100 µg/ml ampicillin, at 37°C, under shaking (250 rpm) until OD600 of 0.5 was reached. Expression was induced with 0.5 ml of 20% arabinose (0.02% final concentration). The culture was grown at 37°C with shaking for 4 hours. Cells were harvested by centrifugation at 9000 rpm for 10 min. The bacterial pellet was stored frozen at -80°C until further processing. For proteins extraction, pellet was resuspended in 10 ml of lysis buffer (50 mM NaH2PO4 pH 8.0, 300 mM NaCl, 10 mM imidazole) with the addition of protease inhibitors (complete EDTA-free, Roche) and lysozyme ([…] final). Cells were disrupted by sonication and the cell lysate was centrifuged at 24000 rpm for 30 min at 4°C. The recombinant PfGSK3 protein was purified by Immobilized Metal Affinity Chromatography according to a batch procedure on 1 ml of Nickel affinity resin (Ni-NTA agarose beads, Qiagen). Beads were washed four times with 10 ml of wash buffer (50 mM NaH2PO4 pH 8.0, 300 mM NaCl, 30 mM imidazole). Protein was eluted with one volume of elution buffer (50 mM NaH2PO4 pH 8.0, 300 mM NaCl, 250 mM imidazole, 10% glycerol).
(§1) Both porcine GSK3 and PfGSK3 were assayed with 40 µM GS-1 peptide, a specific GSK-3 substrate, ([…]pEDEEE, synthesized by the Peptide Synthesis Unit, Institute of Biomolecular Sciences, University of Southampton, U.K.), in buffer A (25 mM Tris-HCl pH 7.5, 10 mM MgC12, 1 mM EGTA, 1 mM DTT, 50 µg heparin/ml, 0.5 mg BSA/ml) in the presence of 15 µM [γ-^33P] ATP (3000 Ci/mmol; 1 mCi/ml) in a final volume of 30 µl. After 30 min. incubation at 30°C, 25 µl aliquots of supernatant were spotted onto 2.5 x 3 cm pieces of Whatman P81 phosphocellulose paper, and, 20 sec. later, the filters were washed five times (for at least 5 min. each time) in 1 % phosphoric acid. The wet filters were counted in the presence of 1 ml ACS (Amersham) scintillation fluid. The kinase activity was expressed in pmoles phosphate incorporated in GS-1 or in percentage of the maximal activity.

GSK-3 [1] = molecular target: T2, GSK-3 (Toxoplasma gondii, UniProt O44002); test: Species specificity: recombinant tagged GSK-3 orthologue kinase assay; assay type: biochemical, Toxaplasma grondii
T2 sequence (O44002 1-394): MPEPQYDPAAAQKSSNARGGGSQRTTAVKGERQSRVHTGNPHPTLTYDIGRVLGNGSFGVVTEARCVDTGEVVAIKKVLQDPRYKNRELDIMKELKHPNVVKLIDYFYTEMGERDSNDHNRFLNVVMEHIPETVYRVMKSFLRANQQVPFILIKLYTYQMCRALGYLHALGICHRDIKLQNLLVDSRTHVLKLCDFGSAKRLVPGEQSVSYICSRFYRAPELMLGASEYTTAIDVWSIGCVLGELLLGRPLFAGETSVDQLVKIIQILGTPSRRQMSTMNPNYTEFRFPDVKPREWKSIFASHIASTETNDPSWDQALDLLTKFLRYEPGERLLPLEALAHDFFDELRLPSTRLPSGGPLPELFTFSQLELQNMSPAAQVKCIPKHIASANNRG
Method: (§2) Following PCR amplification from cDNA libraries or direct synthesis based on databases sequences, the GSK-3 genes were inserted in appropriate expression vectors and recombinant, tagged kinases were expressed, affinity purified and assayed in the presence of up to 10-100µM of each compound of formula (I) according to the present invention and a selection of the PfGSK-3 inhibitors.

[2] = molecular target: Mammalian GSK-3 (GSK-3α/β); test: Kinase assay with native porcine GSK3 purified from porcine brain, GS-1 peptide and [γ-33P] ATP; assay type: biochemical; conditions: for anti-mammalian GSK-3 IC50 values: result in words
Method: Porcine GSK3 (GSK-3α/β) was purified from porcine brain by affinity chromatography on immobilized axin according to the protocol described in Primot et al (Protein Expression and Purification 20, 394-404, 2000).
as §1

GSK-3 [3] = molecular target: T3, GSK-3 (Trypanosoma cruzi, UniProt Q4E1X0); test: Species specificity: recombinant tagged GSK-3 orthologue kinase assay; assay type: biochemical
T3 sequence (Q4E1X0 1-353): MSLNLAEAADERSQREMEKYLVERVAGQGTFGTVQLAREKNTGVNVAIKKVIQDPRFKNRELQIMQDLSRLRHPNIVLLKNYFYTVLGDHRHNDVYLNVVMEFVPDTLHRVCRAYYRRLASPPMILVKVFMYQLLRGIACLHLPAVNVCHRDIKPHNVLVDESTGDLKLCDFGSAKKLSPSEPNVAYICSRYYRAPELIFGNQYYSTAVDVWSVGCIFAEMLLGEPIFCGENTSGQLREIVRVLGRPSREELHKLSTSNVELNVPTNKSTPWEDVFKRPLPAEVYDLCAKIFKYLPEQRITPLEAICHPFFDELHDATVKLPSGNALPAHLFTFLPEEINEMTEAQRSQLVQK
Method: as §2

mammalian kinases = conditions: compared with roscovitine and staurosporine
Method: Compound No. 22 was also tested on a small panel of 22 purified kinases, including 4 P. falciparum kinases. […] To complement this selectivity study, compound No 22 was run on two large scale selectivity panels: Prof. P. Cohen's kinase selectivity panel (76 kinases) (Bain J, Plater L, Elliott M, Shapiro N, Hastie CJ, McLauchlan H et al. (2007). The selectivity of protein kinase inhibitors: a further update. Biochem J. 408: 297-315.) and the Ambit Biosciences interaction assay (402 kinases) (Karaman MW, Herrgard S, Treiber DK, Gallant P, Atteridge CE, Campbell BT, Chan KW, Ciceri P, Davis MI, Edeen PT, Faraoni R, Floyd M, Hunt JP, Lockhart DJ, Milanov ZV, Morrison MJ, Pallares G, Patel HK, Pritchard S, Wodicka LM, Zarrinkar PP. A quantitative analysis of kinase inhibitor selectivity. Nat Biotechnol. 2008 Jan;26(1):127-32.).

[4] = read-out: IC50 Trypanopsoma cruzi; calculated from dose-response curves; -(100) taken as no inhibition at 100
[5] = unit only in the introducing sentence b99, not in the table, read-out: IC50 PfGSK-3
[6] = -(10) taken as no inhibition at 10, read-out: IC50 Mammalian GSK-3
[7] = calculated from dose-response curves, -(100) taken as no inhibition at 100, read-out: IC50 Toxaplasma grondii
[8] = calculated from dose-response curves; -(100) taken as no inhibition at 100; read-out: IC50 Trypanopsoma cruzi

SMILES	anti-PfGSK-3 IC50 values (PfGSK-3)	IC50 (GSK-3 [1])	anti-mammalian GSK-3 IC50 values [2]	IC50 (GSK-3 [3]; [4])	IC50 (PfGSK-3; read-out: PfGSK-3 IC50)	IC50 (PfGSK-3; [5])	IC50 [2, 6]	IC50 ([2]; read-out: mammalian GSK-3α/β IC50)	inhibition of mammalian kinases in selectivity panels (mammalian kinases)	IC50 (GSK-3 [1]; [7])	IC50 (GSK-3 [3]; [8])
COc1ccccc1-c1c(C#N)c(N)nc2sc(C(=O)c3ccccc3)c(N)c12 [Compound 2, 3,6-diamino-2-benzoyl-4-(2-methoxyphenyl)thieno[2,3-b]pyridine-5-carbonitrile]	particularly good	> 100 µM	do not demonstrate good	> 100 µM							
N#Cc1c(N)nc2sc(C(=O)c3cccc(Cl)c3)c(N)c2c1-c1ccccc1Cl [Compound 22, 3,6-diamino-2-(3-chlorobenzoyl)-4-(2-chlorophenyl)thieno[2,3-b]pyridine-5-carbonitrile]	particularly good	> 100 µM	do not demonstrate good	> 100 µM	0.47 µM	0.06 µM	> 10 µM	> 10 µM	very poor, if at all, inhibitor of mammalian kinases		
N#Cc1cccc(C(=O)c2sc3nc(N)c(C#N)c(-c4ccccc4Cl)c3c2N)c1 [Compound 26, 3,6-diamino-4-(2-chlorophenyl)-2-(3-cyanobenzoyl)thieno[2,3-b]pyridine-5-carbonitrile]	particularly good		do not demonstrate good			0.5 µM	> 10 µM			> 100 µM	> 100 µM
N#Cc1c(N)nc2sc(C(=O)c3cccc(Cl)c3)c(N)c2c1-c1ccccc1I [Compound 14, 3,6-diamino-2-(3-chlorobenzoyl)-4-(2-iodophenyl)thieno[2,3-b]pyridine-5-carbonitrile]	particularly good		do not demonstrate good							> 100 µM	> 100 µM
N#Cc1c(N)nc2sc(C(=O)c3cccc(Cl)c3)c(N)c2c1-c1ccccc1Br [Compound 20, 3,6-diamino-4-(2-bromophenyl)-2-(3-chlorobenzoyl)thieno[2,3-b]pyridine-5-carbonitrile]	particularly good		do not demonstrate good							> 100 µM	> 100 µM
